Drawing on patent US7160901B2, “Substituted indolinones, preparation thereof and their use as pharmaceutical compositions” (Boehringer Ingelheim Pharma GmbH & Co. KG, priority 2000, dated 2007), this text covers IC50 and melting point for 4 compounds.

Series [1] concerns Leiomyosarcoma tumour cell line SK-UT-1B. The series is described as follows: Test 1: inhibition of the proliferation of cultivated human tumour cells (14C-thymidine incorporation), SK-UT-1B. Type of series: cell-based. The conditions noted are these: Homo sapiens, Skut1B; in vitro Test 1; SK-UT-1B cells; 48 hours' incubation, then 14C-thymidine for a further 24 hours; IC50 of inhibition of incorporated 14C-thymidine; read-out: Inhibition of SKUT-1B proliferation. An excerpt: Inhibition of the Proliferation of Cultivated Human Tumour Cells
Cells of the Leiomyosarcoma tumour cell line SK-UT-1B or non-small-cell lung tumour cell line NCI-H460 (obtained from the American Type Culture Collection (ATCC)) were cultivated in Minimum Essential Medium with non-essential amino acids (Gibco), supplemented with sodium pyruvate (1 mMol), glutamine (2 mMol) and 10% foetal calf serum (Gibco) or RPMI1640 Medium (Gibco) and 10% foetal calf serum (Gibco) and harvested in the logarithmic growth phase. Then the SK-UT-1B cells were placed in Cytostar® multi-well plates (Amersham) at a density of 4000 cells per well or 3000 cells per well for NCI-H460 cells and incubated overnight in an incubator. Various concentrations of the compounds (dissolved in DMSO; final concentration: 0.1%) were added to the cells. After 48 hours' incubation, ^14C-thymidine (Amersham) was added to each well and incubation was continued for a further 24 hours. The quantity of ^14C-thymidine which was incorporated into the tumour cells in the presence of the inhibitor and which represents the number of cells in the S phase was measured in a Wallace 1450 Microbeta Liquid Scintillation Counter. IC50 values for the inhibition of the proliferation (=inhibition of incorporated ^14C-thymidine) were calculated, correcting for the background radiation. All the measurements were done twice.
The following Table contains the results obtained with the in vitro Test 1 (++ denotes <0.01 μM, + denotes 0.01–1.0 μM): […]

`CS(=O)(=O)Nc1ccc2c(c1)/C(=C(/Nc1ccc(CN3CCCCC3)cc1)c1ccccc1)C(=O)N2` [Example 98, (Z)-3-[1-(4-piperidinomethyl-phenylamino)-1-phenyl-methylidene]-5-methylsulphonylamino-2-indolinone]: the melting point was 266 °C. Further, the IC50 in series [1] lay within 0.01 to 1 µM. As to `CCOC(=O)Cc1ccc(N/C(=C2\C(=O)Nc3ccc(NS(=O)(=O)c4ccccc4)cc32)c2ccccc2)cc1` [Example 152, (Z)-3-[1-(4-ethoxycarbonylmethyl-phenylamino)-1-phenyl-methylidene]-5-phenylsulphonylamino-2-indolinone], the melting point was 248 to 249 °C.

`CN(C)Cc1cccc(N/C(=C2\C(=O)Nc3ccc(N(C)S(=O)(=O)c4ccccc4)cc32)c2ccccc2)c1` [Example 210, (Z)-3-[1-(3-dimethylaminomethyl-phenylamino)-1-phenyl-methylidene]-5-(N-methyl-N-phenylsulphonyl-amino)-2-indolinone] registered a melting point of 226 °C.

With `CS(=O)(=O)N(CC(N)=O)c1ccc(N/C(=C2\C(=O)Nc3ccc(NS(=O)(=O)c4ccccc4)cc32)c2ccccc2)cc1` [Example 155, (Z)-3-{1-[4-(N-(aminocarbonylmethyl)-N-methylsulphonyl-amino)-phenylamino]-1-phenyl-methylidene}-5-phenylsulphonylamino-2-indolinone], the melting point was 216 to 217 °C.
